In PubChem BioAssay (NCI):
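All cell lines were grown in 96-well plates and treated with compound for 48 hours. GI50: concentration for 50% inhibition of growth. The concentration for full growth arrest is given as TGI.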

Assays:
Experiment in all cases: DTP human tumour cell line panel, 48 h
RPMI-8226 leukemia = tested on: RPMI-8226 leukemia
NCI-H23 lung = tested on: NCI-H23 lung
UACC-62 melanoma = tested on: UACC-62 melanoma
HL-60(TB) leukemia = tested on: HL-60(TB) leukemia
SK-OV-3 ovarian = tested on: SK-OV-3 ovarian
HCT-116 colon = tested on: HCT-116 colon
786-0 renal = tested on: 786-0 renal
HCC-2998 colon = tested on: HCC-2998 colon

O=C(c1ccccc1)C1OC12C(=O)Nc1ccccc12 (stereo not given)
TGI (RPMI-8226 leukemia): 84.9 µM | TGI (NCI-H23 lung): 89.4 µM | TGI (UACC-62 melanoma): > 100 µM | TGI (HL-60(TB) leukemia): 9.73 µM | TGI (SK-OV-3 ovarian): > 100 µM | TGI (HCT-116 colon): > 100 µM | TGI (786-0 renal): > 100 µM

O=C1OC2CCCC[C@@H]2C2C[C@]34CCCCC3[C@@H](C(=O)O4)C12 (stereo not given in full)
TGI (NCI-H23 lung): > 100 µM | TGI (UACC-62 melanoma): > 100 µM | TGI (HCC-2998 colon): > 100 µM | TGI (SK-OV-3 ovarian): > 100 µM | TGI (HCT-116 colon): > 100 µM | TGI (786-0 renal): > 100 µM

CN(C)c1cc[c]([Sn]([c]2ccc(N(C)C)cc2)([c]2ccc(N(C)C)cc2)[c]2ccc(N(C)C)cc2)cc1
GI50 (RPMI-8226 leukemia): 1.55 µM | TGI (RPMI-8226 leukemia): 4.76 µM | GI50 (NCI-H23 lung): 5.88 µM | TGI (NCI-H23 lung): 32.3 µM | GI50 (UACC-62 melanoma): 3.68 µM | TGI (UACC-62 melanoma): 17.4 µM | GI50 (HCC-2998 colon): 4.32 µM | TGI (HCC-2998 colon): 18.9 µM | GI50 (HL-60(TB) leukemia): 1.89 µM | TGI (HL-60(TB) leukemia): 6.93 µM | GI50 (SK-OV-3 ovarian): 28 µM | TGI (SK-OV-3 ovarian): 49.5 µM | GI50 (HCT-116 colon): 3.94 µM | TGI (HCT-116 colon): 13.9 µM | GI50 (786-0 renal): 5.36 µM | TGI (786-0 renal): 19.3 µM

O=c1c2cc(Br)cc(Br)c2nc(CCCl)n1CCO
TGI (RPMI-8226 leukemia): > 100 µM | TGI (NCI-H23 lung): > 100 µM | TGI (UACC-62 melanoma): > 100 µM | TGI (HCC-2998 colon): > 100 µM | TGI (HL-60(TB) leukemia): > 100 µM | TGI (SK-OV-3 ovarian): > 100 µM | TGI (HCT-116 colon): > 100 µM | TGI (786-0 renal): > 100 µM

CCN(CC)c1ccc(N=Nc2ccc(-c3nc4ccc[n+](C)c4s3)cc2)cc1
TGI (RPMI-8226 leukemia): 25.7 µM | TGI (NCI-H23 lung): 24.9 µM | TGI (UACC-62 melanoma): 26.6 µM | TGI (SK-OV-3 ovarian): 38.1 µM | TGI (HCT-116 colon): 20.5 µM | TGI (786-0 renal): 59.1 µM

CCOC(=O)NC(=O)c1cn(CCCOC(=O)CCCCCCCCCCC(=O)OCCCn2cc(C(=O)NC(=O)OCC)c(=O)[nH]c2=O)c(=O)[nH]c1=O
TGI (RPMI-8226 leukemia): > 100 µM | TGI (NCI-H23 lung): > 100 µM | TGI (UACC-62 melanoma): > 100 µM | TGI (HCC-2998 colon): > 100 µM | TGI (HL-60(TB) leukemia): > 100 µM | TGI (SK-OV-3 ovarian): > 100 µM | TGI (HCT-116 colon): > 100 µM | TGI (786-0 renal): > 100 µM

C1C[OH+]CC[OH+]CC[OH+]CC[OH+]CC[OH+]1.[Cl-].[V]
GI50 (RPMI-8226 leukemia): > 100 µM | TGI (RPMI-8226 leukemia): > 100 µM | GI50 (NCI-H23 lung): 76.9 µM | TGI (NCI-H23 lung): > 100 µM | GI50 (UACC-62 melanoma): 31.5 µM | TGI (UACC-62 melanoma): > 100 µM | GI50 (HCC-2998 colon): > 100 µM | TGI (HCC-2998 colon): > 100 µM | GI50 (HL-60(TB) leukemia): > 100 µM | TGI (HL-60(TB) leukemia): > 100 µM | GI50 (SK-OV-3 ovarian): 67.8 µM | TGI (SK-OV-3 ovarian): > 100 µM | GI50 (HCT-116 colon): > 100 µM | TGI (HCT-116 colon): > 100 µM | GI50 (786-0 renal): 19 µM | TGI (786-0 renal): 43.7 µM

N#CC1CC2(C1)OCCS2 (stereo not given)
TGI (RPMI-8226 leukemia): > 100 µM | TGI (NCI-H23 lung): > 100 µM | TGI (UACC-62 melanoma): > 100 µM | TGI (HCC-2998 colon): > 100 µM | TGI (HL-60(TB) leukemia): > 100 µM | TGI (HCT-116 colon): > 100 µM | TGI (786-0 renal): > 100 µM

O=C1CCC(O)=C1N=Nc1ccccc1
TGI (NCI-H23 lung): > 100 µM | TGI (UACC-62 melanoma): 74.1 µM | TGI (HCC-2998 colon): > 100 µM | TGI (HL-60(TB) leukemia): > 100 µM | TGI (SK-OV-3 ovarian): > 100 µM | TGI (HCT-116 colon): > 100 µM | TGI (786-0 renal): > 100 µM

O=C(Nc1c(Cl)cc([N+](=O)[O-])cc1Cl)C(=O)C(C1OC(=O)c2ccccc21)[N+](=O)[O-] (stereo not given)
TGI (RPMI-8226 leukemia): > 100 µM | TGI (NCI-H23 lung): > 100 µM | TGI (UACC-62 melanoma): > 100 µM | TGI (HCC-2998 colon): > 100 µM | TGI (HL-60(TB) leukemia): > 100 µM | TGI (SK-OV-3 ovarian): > 100 µM | TGI (HCT-116 colon): > 100 µM | TGI (786-0 renal): > 100 µM

C=CCc1ccc(Oc2cc(CC=C)c3c(c2O)O[C@@H](CO)[C@H]3c2ccc(O)c(-c3cc(CC=C)ccc3O)c2)cc1
TGI (RPMI-8226 leukemia): > 100 µM | TGI (NCI-H23 lung): > 100 µM | TGI (UACC-62 melanoma): 85 µM | TGI (HCC-2998 colon): > 100 µM | TGI (HL-60(TB) leukemia): 55.3 µM | TGI (SK-OV-3 ovarian): > 100 µM | TGI (HCT-116 colon): > 100 µM | TGI (786-0 renal): > 100 µM

O=C1CSC(/C(=N/Nc2ccccc2)c2nc3ccccc3[nH]2)=N1
TGI (NCI-H23 lung): > 100 µM | TGI (UACC-62 melanoma): > 100 µM | TGI (HCC-2998 colon): > 100 µM | TGI (HL-60(TB) leukemia): > 100 µM | TGI (SK-OV-3 ovarian): 73.5 µM | TGI (HCT-116 colon): > 100 µM | TGI (786-0 renal): 80 µM

O=C1[C@@H]2C(c3ccccc3F)=NO[C@@H]2C(=O)N1c1ccc(Cc2ccc(N3C(=O)[C@H]4C(c5ccccc5F)=NO[C@H]4C3=O)cc2)cc1
TGI (RPMI-8226 leukemia): > 83.3 µM | TGI (NCI-H23 lung): > 100 µM | TGI (UACC-62 melanoma): > 100 µM | TGI (HCC-2998 colon): > 100 µM | TGI (HL-60(TB) leukemia): 34.7 µM | TGI (SK-OV-3 ovarian): > 100 µM | TGI (HCT-116 colon): > 100 µM | TGI (786-0 renal): > 100 µM

COc1cc(/C=C(\C#N)c2ccccc2)cc(OC)c1
TGI (RPMI-8226 leukemia): > 100 µM | TGI (NCI-H23 lung): > 100 µM | TGI (UACC-62 melanoma): > 100 µM | TGI (HCC-2998 colon): > 100 µM | TGI (HL-60(TB) leukemia): > 100 µM | TGI (SK-OV-3 ovarian): > 100 µM | TGI (HCT-116 colon): > 100 µM | TGI (786-0 renal): > 100 µM

Clc1ccc2c(c1)-c1c3c(nn1-c1ccccc1)-c1ccccc1SC3O2 (stereo not given)
TGI (RPMI-8226 leukemia): > 100 µM | TGI (NCI-H23 lung): > 100 µM | TGI (HCC-2998 colon): > 100 µM | TGI (HL-60(TB) leukemia): > 100 µM | TGI (SK-OV-3 ovarian): > 100 µM | TGI (HCT-116 colon): > 100 µM | TGI (786-0 renal): > 100 µM

CCCCCCCCCCCC(=O)OCC1OC(OC)C(NC(=O)N(CCCl)N=O)C(O)C1O (stereo not given)
TGI (RPMI-8226 leukemia): 29.6 µM | TGI (UACC-62 melanoma): 15.7 µM | TGI (HCC-2998 colon): 33.2 µM | TGI (HCT-116 colon): 29.2 µM | TGI (786-0 renal): 10.4 µM

O=C1NC2OC(C(O)CO)C(O)C2O1 (stereo not given)
TGI (NCI-H23 lung): > 100 µM | TGI (UACC-62 melanoma): > 100 µM | TGI (HCC-2998 colon): > 100 µM | TGI (HL-60(TB) leukemia): > 100 µM | TGI (SK-OV-3 ovarian): > 100 µM | TGI (HCT-116 colon): > 100 µM | TGI (786-0 renal): > 100 µM

O=C(O)[C@H](NS(=O)(=O)c1ccc([N+](=O)[O-])cc1)c1ccccc1
TGI (RPMI-8226 leukemia): > 100 µM | TGI (NCI-H23 lung): > 100 µM | TGI (UACC-62 melanoma): > 100 µM | TGI (HCC-2998 colon): > 100 µM | TGI (SK-OV-3 ovarian): > 100 µM | TGI (HCT-116 colon): > 100 µM | TGI (786-0 renal): > 100 µM

c1ccc(C2Nc3ccccc3C3OCCCC23)cc1 (stereo not given)
TGI (RPMI-8226 leukemia): 60.2 µM | TGI (NCI-H23 lung): > 100 µM | TGI (UACC-62 melanoma): 58.5 µM | TGI (HCC-2998 colon): > 100 µM | TGI (HL-60(TB) leukemia): 51.1 µM | TGI (HCT-116 colon): 87.3 µM | TGI (786-0 renal): > 100 µM

O=C1/C(=C/c2cccc([N+](=O)[O-])c2)COc2ccc(Br)cc21
TGI (RPMI-8226 leukemia): 6.57 µM | TGI (NCI-H23 lung): > 100 µM | TGI (HCC-2998 colon): > 100 µM | TGI (HL-60(TB) leukemia): 58 µM | TGI (SK-OV-3 ovarian): > 100 µM | TGI (HCT-116 colon): > 100 µM | TGI (786-0 renal): > 100 µM
